Where two headings read alike, the source gives them in different places. Marks after values point to notes of the source that are not given here. Square brackets hold non-standard residues; d marks the D form. Peptide text beside a SMILES is read from it. pGlu = O=C1CC[CH](C(=O)O)N1
Experiments:
rat thoracic aorta rings [1] = experiment: Antagonism of UII- or URP-induced contraction of rat aortic ring; type: cell-based; details: pretreatment 10^−6M, 15 min
Procedure: Male rats (Sprague-Dawley, 250-300 g) were killed by CO2 asphyxiation. The thoracic aorta was then cleared of surrounding tissues and excised from aortic arch to the diaphragm. From each vessel, conjunctive tissues were removed and the clean vessel was cut into 4 mm rings. The endothelium was removed by gently rubbing the vessel's intimal surface. All preparations were placed in 5 ml organ baths filled with oxygenated normal Krebs-Henselheit solution. Contractile responses to 40 mM KCl were used as control at the beginning and at the end of each experiment. Agonistic activity was measured by increasing the concentration of the peptide in the organ chamber (3×10^−11-3×10^−6 M). For antagonist behaviour, thoracic aortic rings were first exposed to URP derivative over a period of 15 min, and then cumulative concentration-response curves to hUII, URP or ET-1 (10^−10-3×10^−6 M) were constructed. The amplitude of the contraction induced by each concentration of peptide was expressed as a percentage of the KCl-induced contraction. Finally, the ability of the antagonist to reverse the hUII-induced contraction was also evaluated. Vessels were pre-contracted with 4 nM hUII (pre-determined EC80) and after the maximum contraction was attained, contractile tone was reversed by adding increasing log unit concentrations of URP derivative. […] Binding and functional experiments were performed at least in triplicate and data, expressed as mean±S.E.M, were analyzed using the Prism software (Graph Pad Software, San Diego, Calif.). In all experiments, n represents the total number of animals studied or individual assays performed. The EC50, pEC50, pIC50 values as well as the Emax value were determined from the concentration-response curves using a sigmoidal dose-response fit with variable slope. Non-competitive antagonist affinities (pKb) were determined using the method of Gaddum where equiactive concentrations of agonist, in the absence or presence of URP derivative, were compared in a linear regression. The resulting slope was used to calculate the equilibrium constant Kb using the following equation: Kb=[B]/(slope−1); where [B] is the antagonist concentration. The slope is calculated from the double reciprocal plot of equiactive concentrations of agonist in the presence and absence of antagonist.

rat thoracic aorta rings [2] = type: cell-based; details: for Aortic Ring contraction pEC50: endothelium-denuded rat thoracic aorta; for Aortic Ring contraction Emax (%): percentage of contraction induced by KCl (40 mM); for Aortic Ring contraction Emax (%), maximum efficacy at 10^−5.5M: percentage of KCl (40 mM) contraction
Procedure: Binding and functional experiments were performed at least in triplicate and data, expressed as mean±S.E.M, were analyzed using the Prism software (Graph Pad Software, San Diego, Calif.). In all experiments, n represents the total number of animals studied or individual assays performed. The EC50, pEC50, pIC50 values as well as the Emax value were determined from the concentration-response curves using a sigmoidal dose-response fit with variable slope. […] The slope is calculated from the double reciprocal plot of equiactive concentrations of agonist in the presence and absence of antagonist.

[3] = molecular target: T1, human urotensin II receptor (UT) (Homo sapiens, UniProt Q9UKP6); experiment: Competitive radioligand binding on CHO-UT cells
T1 construct: expressed in transfected cells; host or cells: CHO cells (CHO-UT), stably transfected, G418 selection
T1 sequence (Q9UKP6 1-389): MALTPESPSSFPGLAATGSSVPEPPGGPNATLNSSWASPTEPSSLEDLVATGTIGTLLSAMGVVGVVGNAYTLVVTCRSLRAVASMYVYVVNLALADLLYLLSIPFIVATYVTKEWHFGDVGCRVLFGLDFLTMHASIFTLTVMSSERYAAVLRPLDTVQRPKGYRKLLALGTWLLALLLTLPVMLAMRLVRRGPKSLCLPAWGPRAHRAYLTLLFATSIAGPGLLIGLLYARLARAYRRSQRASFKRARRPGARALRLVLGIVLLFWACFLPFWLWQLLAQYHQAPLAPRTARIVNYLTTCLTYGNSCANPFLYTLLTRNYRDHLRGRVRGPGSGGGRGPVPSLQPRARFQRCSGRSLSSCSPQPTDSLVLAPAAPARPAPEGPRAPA
Procedure: Transfected CHO cells expressing the human urotensin receptor (CHO-UT) were maintained in Ham-F12 medium with 10% fetal bovine serum (FBS), 2 mM L-glutamine, 100 UI/mL each of penicillin and streptomycin, and 400 μg/mL G418. […] Binding assays were following known literature procedures using CHO cells stably transfected with hGPR14. […] After 90 min of incubation at room temperature, cells were washed, lysed, and the cell-bound radioactivity was quantified using a γ-counter. […] The cells were then washed, lysed, and the radioactivity counted on a γ-counter (1470 Automatic Gamma Counter, Perkin Elmer). Binding and functional experiments were performed at least in triplicate and data, expressed as mean±S.E.M, were analyzed using the Prism software (Graph Pad Software, San Diego, Calif.). In all experiments, n represents the total number of animals studied or individual assays performed. The EC50, pEC50, pIC50 values as well as the Emax value were determined from the concentration-response curves using a sigmoidal dose-response fit with variable slope. […] The slope is calculated from the double reciprocal plot of equiactive concentrations of agonist in the presence and absence of antagonist.

anaesthetized rats = experiment: Hemodynamic assessment (arterial blood pressure) in anaesthetized rats; type: in vivo, rat
Procedure: Male Sprague-Dawley rats, weighing 350-400 g, were anaesthetized by isoflurane inhalation delivered in 100% oxygen (1 l/min) from an Ohmeda Tec 4 anaesthetic vaporizer (Somatechnology, Inc., Bloomfield, Conn., USA). Anaesthesia was maintained by mask inhalation of isoflurane vaporized at concentrations of up to 3% in the induction phase, at 1.5% during acute surgical procedures and at 0.8-1.0% during experimental observations. […]. […] A period of stabilisation of 30 min was observed and the following experimental protocols were then performed and arterial blood pressure was evaluated. During isoflurane inhalation, no breathing complications or changes in blood pressure were observed. […].
In a preliminary study, individual rats received a single i.v. injection of hUII ranging from 1 to 30 nmol/kg. A dose-response curve, reflecting the effect of hUII on the change in blood pressure, was then determined.
In this set of experiments, five groups of rats were used. […] […]. Hemodynamic changes were continuously captured by the pressure probe over a period of 1 h. The maximum rise and the maximum drop in blood pressure was determined and analyzed using the PowerLab software (ADInstruments, Colorado Springs, Colo., USA).
In the control group, the rats received two doses of hUII (10 nmol/kg) with a 30 min interval between the first and second injection.

rat thoracic aorta rings [4] = experiment: Effect on ET-1-induced contraction of rat aortic ring; type: cell-based; details: without [Bip^4]URP
Procedure: Male rats (Sprague-Dawley, 250-300 g) were killed by CO2 asphyxiation. The thoracic aorta was then cleared of surrounding tissues and excised from aortic arch to the diaphragm. From each vessel, conjunctive tissues were removed and the clean vessel was cut into 4 mm rings. The endothelium was removed by gently rubbing the vessel's intimal surface. All preparations were placed in 5 ml organ baths filled with oxygenated normal Krebs-Henselheit solution. Contractile responses to 40 mM KCl were used as control at the beginning and at the end of each experiment. Agonistic activity was measured by increasing the concentration of the peptide in the organ chamber (3×10^−11-3×10^−6 M). For antagonist behaviour, thoracic aortic rings were first exposed to URP derivative over a period of 15 min, and then cumulative concentration-response curves to hUII, URP or ET-1 (10^−10-3×10^−6 M) were constructed. The amplitude of the contraction induced by each concentration of peptide was expressed as a percentage of the KCl-induced contraction. Finally, the ability of the antagonist to reverse the hUII-induced contraction was also evaluated. Vessels were pre-contracted with 4 nM hUII (pre-determined EC80) and after the maximum contraction was attained, contractile tone was reversed by adding increasing log unit concentrations of URP derivative.

[5] = 125I-hUII 0.2 nM, CHO-UT cells, 95% confidence limits in parentheses, read-out: Binding IC50

`CC(NC(=O)C(NC(=O)CNC(=O)C(Cc1c[nH]cn1)NC(=O)C1CCC(=O)N1)C(C)O)C(=O)N1CCCC1C(=O)NC(CCC(=O)O)C(N)=O` (stereo not drawn) [rUII(1-7), Pyr-His-Gly-Thr-Ala-Pro-Glu-NH2] ([pGlu]HGTAPE-NH2; configuration not given here) was tested, and the “Effect on URP-associated contraction curve (in words)” value (rat thoracic aorta rings [1]) was “significant rightward shift”, the “Effect on rUII-induced contraction (in words)” value (rat thoracic aorta rings [1]) was “did not significantly alter” and the “Agonist behaviour in aortic ring contraction (in words)” value (rat thoracic aorta rings [2]) was “unable to induce the contraction of rat aortic rings”.

`CC(C)[C@H](NC(=O)[C@@H]1CSSC[C@H](NC(=O)[C@H](C)N)C(=O)N[C@@H](Cc2ccccc2)C(=O)N[C@@H](c2ccccc2)C(=O)N[C@@H](CCCCN)C(=O)N[C@@H](Cc2ccc(O)cc2)C(=O)N1)C(=O)O` [Compound 14, H-Ala-Cys-Phe-Phg-Lys-Tyr-Cys-Val-OH] was tested, and the EC50 (rat thoracic aorta rings [2]) was 251 nM, the “Aortic Ring contraction pEC50” value (rat thoracic aorta rings [2]) was 6.60 ± 0.15 and the “Aortic Ring contraction Emax (%)” value (rat thoracic aorta rings [2]) was 102 ± 9%. The “Binding affinity for UT (in words)” value [3] was “high binding affinity” and the IC50 [3, 5] was 29 nM.

`CC(C)[C@H](NC(=O)[C@@H]1CSSC[C@H](NC(=O)[C@H](C)N)C(=O)N[C@@H](Cc2ccccc2)C(=O)N[C@@H](CC2CCCCC2)C(=O)N[C@@H](CCCCN)C(=O)N[C@@H](Cc2ccc(O)cc2)C(=O)N1)C(=O)O` [Compound 6, H-Ala-Cys-Phe-Cha-Lys-Tyr-Cys-Val-OH] was tested, and the “Agonist behaviour in aortic ring contraction (in words)” value (rat thoracic aorta rings [2]) was “full but weak agonist”, the EC50 (rat thoracic aorta rings [2]) was over 1000 nM and the “Aortic Ring contraction pEC50” value (rat thoracic aorta rings [2]) was under 6. The “Aortic Ring contraction Emax (%), maximum efficacy at 10^−5.5M” value (rat thoracic aorta rings [2]) was 77^d % and the “Reduction in binding affinity compared to compound 5” value ([3]; versus compound 5) was 3 fold.

With `CC(C)[C@H](NC(=O)[C@@H]1CSSC[C@H](NC(=O)[C@H](C)N)C(=O)N[C@@H](Cc2ccccc2)C(=O)N2Cc3ccccc3C[C@H]2C(=O)N[C@@H](CCCCN)C(=O)N[C@@H](Cc2ccc(O)cc2)C(=O)N1)C(=O)O` [Compound 18, H-Ala-Cys-Phe-Tic-Lys-Tyr-Cys-Val-OH] the EC50 (rat thoracic aorta rings [2]) was over 1000 nM, the “Aortic Ring contraction pEC50” value (rat thoracic aorta rings [2]) was under 6 and the “Aortic Ring contraction Emax (%), maximum efficacy at 10^−5.5M” value (rat thoracic aorta rings [2]) was 43%. The “Binding affinity for UT (in words)” value [3] was “dramatic loss of binding affinity”.

In the case of `CC(C)[C@H](NC(=O)[C@@H]1CSSC[C@H](NC(=O)[C@H](C)N)C(=O)N[C@@H](Cc2ccccc2)C(=O)N[C@@H](Cc2c[nH]c3ccccc23)C(=O)N[C@@H](CCCCN)C(=O)N[C@@H](Cc2ccc(O)cc2)C(=O)N1)C(=O)O` [Compound 2, reference compound], the EC50 (rat thoracic aorta rings [2]) is reported as 7 nM, the “Aortic Ring contraction pEC50” value (rat thoracic aorta rings [2]) is reported as 8.09±0.18 and the “Aortic Ring contraction Emax (%)” value (rat thoracic aorta rings [2]) is reported as 100±6%. The “Binding affinity for UT (in words)” value [3] was “high affinity”, the IC50 ([3]; Binding (125I-URP) IC50 (nM), radioligand 125I-URP, recombinant human UT) was 31.8 nM and the IC50 ([3]; Binding (125I-hUII) IC50 (nM), radioligand 125I-hUII, recombinant human UT) was 12.4 nM. The “Binding (125I-hUII) pIC50” value ([3]; radioligand 125I-hUII, recombinant human UT) was 7.90 ± 0.11, the “Hemodynamic response to bolus i.v. injection” value (anaesthetized rats; 0.01 μmol/kg i.v.) was “biphasic hemodynamic response” and the “Time of hypotension nadir” value (anaesthetized rats; 0.01 μmol/kg i.v.) was about 6 min. The “Time of pressor phase peak” value (anaesthetized rats; 0.01 μmol/kg i.v.) was about 1 min, the “Response to repeated injections” value (anaesthetized rats; 10 nmol/kg twice, 30 min interval) was “equivalent biphasic responses” and the “Effect of prior URP injection on hUII hemodynamic response” value (anaesthetized rats; hUII 30 min after URP bolus, 10 nmol/kg) was “such observation was not made”.

For `CC(C)[C@H](NC(=O)[C@@H]1CSSC[C@H](NC(=O)[C@H](C)N)C(=O)N[C@@H](Cc2ccccc2)C(=O)N[C@H](c2ccccc2)C(=O)N[C@@H](CCCCN)C(=O)N[C@@H](Cc2ccc(O)cc2)C(=O)N1)C(=O)O` [Compound 15, [D-Phg^4]URP], the EC50 (rat thoracic aorta rings [2]) was 117 nM, the “Aortic Ring contraction pEC50” value (rat thoracic aorta rings [2]) was 6.93 ± 0.09 and the “Aortic Ring contraction Emax (%)” value (rat thoracic aorta rings [2]) was 116 ± 5%. The “Binding affinity for UT (in words)” value [3] was “high binding affinity” and the IC50 [3, 5] was 29 nM.

endothelin-1 [ET-1, reference compound] was tested, and the “ET-1 Emax” value (rat thoracic aorta rings [4]) was 119±6 and the “ET-1 pEC50” value (rat thoracic aorta rings [4]) was 8.06±0.15.

From patent publication US9340575B2, “Agonists and antagonists of the urotensinergic system” (INSTITUT NATIONAL DE LA RECHERCHE SCIENTIFIQUE, priority 2011, dated 2016)
